Reference: patent US11053204B2, “Pyrimidinyloxy benzene derivatives as herbicides” (FMC Corporation, priority 2015, dated 2021)

Columns and labels:
Assay type in all cases: in vivo
[1] = tested on: Italian ryegrass (Lolium multiflorum); experiment: Test A preemergence, visual injury rating
How it was run: (§1)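 Pre- and postemergence greenhouse screen. Soil: loam + sand. Spray carrier: solvent mixture, non-phytotoxic, with surfactant. Post timing at 1–2 leaves, height 2–10 cm. Readout: visual injury on a 0–100 scale roughly 10 days after application, untreated plants as reference.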

[2] = tested on: barnyardgrass (Echinochloa crus-galli); experiment: Test A preemergence, visual injury rating; settings: for Plant response rating, Barnyardgrass: 31 g ai/ha, 0 to 100 scale, 0 no effect, 100 complete control; for Barnyardgrass plant response rating: 125 g ai/ha, 0 to 100 scale (0 no effect, 100 complete control)
How it was run: as §1

[3] = tested on: giant foxtail (Setaria faberii); experiment: Test A preemergence, visual injury rating
How it was run: as §1

[4] = tested on: kochia (Kochia scoparia); experiment: Test A preemergence, visual injury rating
How it was run: as §1

[5] = tested on: pigweed (Amaranthus retroflexus); experiment: Test A preemergence, visual injury rating
How it was run: as §1

[6] = tested on: ragweed (common ragweed, Ambrosia elatior); experiment: Test A preemergence, visual injury rating
How it was run: as §1

[7] = tested on: Italian ryegrass (Lolium multiflorum); experiment: Test A postemergence, visual injury rating; settings: 0 to 100 scale, 0 is no effect, 100 is complete control, approximately 10 days
How it was run: as §1

[8] = tested on: barnyardgrass (Echinochloa crus-galli); experiment: Test A postemergence, visual injury rating; settings: 0 to 100 scale, 0 is no effect, 100 is complete control, approximately 10 days
How it was run: as §1

[9] = tested on: blackgrass (Alopecurus myosuroides); experiment: Test A postemergence, visual injury rating; settings: 0 to 100 scale, 0 is no effect, 100 is complete control, approximately 10 days
How it was run: as §1

[10] = tested on: corn (Zea mays); experiment: Test A postemergence, visual injury rating; settings: 0 to 100 scale, 0 is no effect, 100 is complete control, approximately 10 days
How it was run: as §1

[11] = tested on: galium (catchweed bedstraw, Galium aparine); experiment: Test A postemergence, visual injury rating; settings: 0 to 100 scale, 0 is no effect, 100 is complete control, approximately 10 days
How it was run: as §1

[12] = tested on: giant foxtail (Setaria faberii); experiment: Test A postemergence, visual injury rating; settings: 0 to 100 scale, 0 is no effect, 100 is complete control, approximately 10 days
How it was run: as §1

[13] = tested on: kochia (Kochia scoparia); experiment: Test A postemergence, visual injury rating; settings: 0 to 100 scale, 0 is no effect, 100 is complete control, approximately 10 days
How it was run: as §1

[14] = tested on: pigweed (Amaranthus retroflexus); experiment: Test A postemergence, visual injury rating; settings: 0 to 100 scale, 0 is no effect, 100 is complete control, approximately 10 days
How it was run: as §1

[15] = tested on: ragweed (common ragweed, Ambrosia elatior); experiment: Test A postemergence, visual injury rating; settings: 0 to 100 scale, 0 is no effect, 100 is complete control, approximately 10 days
How it was run: as §1

[16] = tested on: wheat (Triticum aestivum); experiment: Test A postemergence, visual injury rating; settings: 0 to 100 scale, 0 is no effect, 100 is complete control, approximately 10 days
How it was run: as §1

[17] = tested on: barnyardgrass (Echinochloa crus-galli); experiment: Test B flooded paddy test, plant response rating; settings: 250 g ai/ha; Flood; scale of 0 to 100 where 0 is no effect and 100 is complete control; 13 to 15 days
How it was run: (§2)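 Under a constant 3 cm flood, test compounds went directly into the paddy water. Following 13 to 15 days of greenhouse growth, treated species and controls were compared by eye.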

[18] = tested on: ducksalad (Heteranthera limosa); experiment: Test B flooded paddy test, plant response rating; settings: 250 g ai/ha; Flood; scale of 0 to 100 where 0 is no effect and 100 is complete control; 13 to 15 days
How it was run: as §2

[19] = tested on: rice (Oryza sativa); experiment: Test B flooded paddy test, plant response rating; settings: 250 g ai/ha; Flood; scale of 0 to 100 where 0 is no effect and 100 is complete control; 13 to 15 days
How it was run: as §2

[20] = tested on: sedge, umbrella (small-flower umbrella sedge, Cyperus difformis); experiment: Test B flooded paddy test, plant response rating; settings: 250 g ai/ha; Flood; scale of 0 to 100 where 0 is no effect and 100 is complete control; 13 to 15 days
How it was run: as §2

[21] = 31 g ai/ha, 0 to 100 scale, 0 no effect, 100 complete control
[22] = 125 g ai/ha, 0 to 100 scale (0 no effect, 100 complete control)

CCON=C(C)c1c(Br)cccc1Oc1ncc(Cl)cn1 [Compound 95]
40: Pigweed plant response rating [5, 22] | Galium plant response rating ([11]; 125 g ai/ha)
50: Foxtail, Giant plant response rating [3, 22]
70: Barnyardgrass plant response rating [2]
60: Foxtail, Giant plant response rating ([12]; 125 g ai/ha)
10: Plant response rating, Barnyardgrass [2] | Blackgrass plant response rating ([9]; 125 g ai/ha) | Corn plant response rating ([10]; 125 g ai/ha) | Galium plant response rating ([11]; 31 g ai/ha) | Pigweed plant response rating ([14]; 31 g ai/ha)
30: Barnyardgrass plant response rating ([8]; 125 g ai/ha) | Plant response rating, Ducksalad [18]
20: Pigweed plant response rating ([14]; 125 g ai/ha)
0: Plant response rating, Ryegrass, Italian [1, 21] | Ryegrass, Italian plant response rating [1, 22] | Plant response rating, Foxtail, Giant [3, 21] | Plant response rating, Kochia [4, 21] | Kochia plant response rating [4, 22] | Plant response rating, Pigweed [5, 21] | Plant response rating, Ragweed [6, 21] | Ragweed plant response rating [6, 22] | Ryegrass, Italian plant response rating ([7]; 31 g ai/ha) | Ryegrass, Italian plant response rating ([7]; 125 g ai/ha) | Barnyardgrass plant response rating ([8]; 31 g ai/ha) | Blackgrass plant response rating ([9]; 31 g ai/ha) | Corn plant response rating ([10]; 31 g ai/ha) | Foxtail, Giant plant response rating ([12]; 31 g ai/ha) | Kochia plant response rating ([13]; 31 g ai/ha) | Kochia plant response rating ([13]; 125 g ai/ha) | Ragweed plant response rating ([15]; 31 g ai/ha) | Ragweed plant response rating ([15]; 125 g ai/ha) | Wheat plant response rating ([16]; 31 g ai/ha) | Wheat plant response rating ([16]; 125 g ai/ha) | Plant response rating, Barnyardgrass [17] | Plant response rating, Rice [19] | Plant response rating, Sedge, Umbrella [20]

CC(C)(C)CCOC(=O)c1c(Br)cccc1Oc1ncc(Cl)cn1 [Compound 96]
0: Plant response rating, Ryegrass, Italian [1, 21] | Ryegrass, Italian plant response rating [1, 22] | Plant response rating, Barnyardgrass [2] | Barnyardgrass plant response rating [2] | Plant response rating, Foxtail, Giant [3, 21] | Foxtail, Giant plant response rating [3, 22] | Plant response rating, Kochia [4, 21] | Kochia plant response rating [4, 22] | Plant response rating, Pigweed [5, 21] | Pigweed plant response rating [5, 22] | Plant response rating, Ragweed [6, 21] | Ragweed plant response rating [6, 22] | Ryegrass, Italian plant response rating ([7]; 31 g ai/ha) | Ryegrass, Italian plant response rating ([7]; 125 g ai/ha) | Barnyardgrass plant response rating ([8]; 31 g ai/ha) | Blackgrass plant response rating ([9]; 31 g ai/ha) | Corn plant response rating ([10]; 31 g ai/ha) | Galium plant response rating ([11]; 31 g ai/ha) | Foxtail, Giant plant response rating ([12]; 31 g ai/ha) | Kochia plant response rating ([13]; 31 g ai/ha) | Kochia plant response rating ([13]; 125 g ai/ha) | Pigweed plant response rating ([14]; 31 g ai/ha) | Ragweed plant response rating ([15]; 31 g ai/ha) | Ragweed plant response rating ([15]; 125 g ai/ha) | Wheat plant response rating ([16]; 31 g ai/ha) | Wheat plant response rating ([16]; 125 g ai/ha) | Plant response rating, Barnyardgrass [17] | Plant response rating, Ducksalad [18] | Plant response rating, Rice [19] | Plant response rating, Sedge, Umbrella [20]
20: Corn plant response rating ([10]; 125 g ai/ha) | Galium plant response rating ([11]; 125 g ai/ha)
10: Barnyardgrass plant response rating ([8]; 125 g ai/ha) | Blackgrass plant response rating ([9]; 125 g ai/ha) | Foxtail, Giant plant response rating ([12]; 125 g ai/ha) | Pigweed plant response rating ([14]; 125 g ai/ha)

O=C(OCC(Cl)CCl)c1c(Br)cccc1Oc1ncc(Cl)cn1 (centres unmarked) [Compound 97]
20: Plant response rating, Pigweed [5, 22] | Ryegrass, Italian plant response rating ([7]; 31 g ai/ha) | Barnyardgrass plant response rating ([8]; 125 g ai/ha) | Blackgrass plant response rating ([9]; 125 g ai/ha) | Pigweed plant response rating ([14]; 31 g ai/ha) | Ragweed plant response rating ([15]; 125 g ai/ha)
50: Pigweed plant response rating ([14]; 125 g ai/ha)
40: Plant response rating, Foxtail, Giant [3, 21] | Kochia plant response rating ([13]; 125 g ai/ha)
100: Galium plant response rating ([11]; 31 g ai/ha) | Galium plant response rating ([11]; 125 g ai/ha)
60: Foxtail, Giant plant response rating ([12]; 125 g ai/ha)
10: Barnyardgrass plant response rating [2] | Barnyardgrass plant response rating ([8]; 31 g ai/ha) | Corn plant response rating ([10]; 31 g ai/ha) | Corn plant response rating ([10]; 125 g ai/ha) | Foxtail, Giant plant response rating ([12]; 31 g ai/ha) | Ragweed plant response rating ([15]; 31 g ai/ha)
70: Plant response rating, Foxtail, Giant [3, 22] | Plant response rating, Ducksalad [18]
75: Plant response rating, Sedge, Umbrella [20]
30: Ryegrass, Italian plant response rating ([7]; 125 g ai/ha)
0: Plant response rating, Ryegrass, Italian [1, 21] | Plant response rating, Ryegrass, Italian [1, 22] | Plant response rating, Barnyardgrass [2] | Plant response rating, Kochia [4, 21] | Plant response rating, Kochia [4, 22] | Plant response rating, Pigweed [5, 21] | Plant response rating, Ragweed [6, 21] | Plant response rating, Ragweed [6, 22] | Blackgrass plant response rating ([9]; 31 g ai/ha) | Wheat plant response rating ([16]; 31 g ai/ha) | Wheat plant response rating ([16]; 125 g ai/ha) | Plant response rating, Barnyardgrass [17] | Plant response rating, Rice [19]

CC(=NOCCC(F)(F)F)c1c(Br)cccc1Oc1ncc(Cl)cn1 [Compound 98]
50: Galium plant response rating ([11]; 125 g ai/ha)
10: Barnyardgrass plant response rating ([8]; 125 g ai/ha) | Blackgrass plant response rating ([9]; 125 g ai/ha) | Corn plant response rating ([10]; 125 g ai/ha) | Galium plant response rating ([11]; 31 g ai/ha) | Ragweed plant response rating ([15]; 125 g ai/ha) | Wheat plant response rating ([16]; 125 g ai/ha)
20: Foxtail, Giant plant response rating ([12]; 125 g ai/ha)
0: Plant response rating, Ryegrass, Italian [1, 21] | Plant response rating, Ryegrass, Italian [1, 22] | Plant response rating, Barnyardgrass [2] | Plant response rating, Foxtail, Giant [3, 21] | Plant response rating, Kochia [4, 21] | Plant response rating, Kochia [4, 22] | Plant response rating, Pigweed [5, 21] | Plant response rating, Pigweed [5, 22] | Plant response rating, Ragweed [6, 21] | Plant response rating, Ragweed [6, 22] | Ryegrass, Italian plant response rating ([7]; 31 g ai/ha) | Ryegrass, Italian plant response rating ([7]; 125 g ai/ha) | Barnyardgrass plant response rating ([8]; 31 g ai/ha) | Blackgrass plant response rating ([9]; 31 g ai/ha) | Corn plant response rating ([10]; 31 g ai/ha) | Foxtail, Giant plant response rating ([12]; 31 g ai/ha) | Kochia plant response rating ([13]; 31 g ai/ha) | Kochia plant response rating ([13]; 125 g ai/ha) | Ragweed plant response rating ([15]; 31 g ai/ha) | Wheat plant response rating ([16]; 31 g ai/ha) | Plant response rating, Barnyardgrass [17] | Plant response rating, Ducksalad [18] | Plant response rating, Rice [19] | Plant response rating, Sedge, Umbrella [20]
30: Barnyardgrass plant response rating [2] | Pigweed plant response rating ([14]; 31 g ai/ha)
40: Plant response rating, Foxtail, Giant [3, 22]
90: Pigweed plant response rating ([14]; 125 g ai/ha)
